In US6124323A, “4-substituted piperidine analogs and their use as subtype selective NMDA receptor antagonists” (Warner-Lambert Company, priority 1998, dated 2000):
Structures can show the parent of a compound that is named as a salt. Where two headings read alike, the source gives them in different places.

Assays:
[1] = molecular target: T1, NMDA receptor subunits 1A/2B (Rattus norvegicus, UniProt P35439+Q00960); assay: Electrophysiological assay at NMDA receptor subunits expressed in Xenopus oocytes, 1A/2B; assay type: cell-based
T1 construct: expressed in transfected cells; host or cells: Xenopus laevis oocytes (cRNA injection; clones from Dr. P. H. Seeburg)
Experimental: (§1) Many of the properties of native NMDA receptors are seen in recombinant homomeric NR1 receptors. These properties are altered by the NR2 subunits. Recombinant NMDA receptors expressed in Xenopus oocytes have been studied by voltage-clamp recording, as has developmental and regional expression of the mRNAs encoding NMDA receptor subunits. Electrophysiological assays were utilized to characterize the actions of compounds at NMDA receptors expressed in Xenopus oocytes. The compounds were assayed at four subunit combinations of cloned rat NMDA receptors, corresponding to three putative NMDA receptor subtypes [Moriyoshi, et al. Nature 1991, 354, 31-37; Monyer et al, Science 1992, 256, 1217-1221; Kutsuwada et al, Nature 1992, 358, 36-41; Sugihara et al, Biochem. Biophys Res. Commun. 1992, 185, 826-832].
(§2) Electrophysiological Assays at NMDA Receptor Subunits
(§3) Preparation of RNA. cDNA clones encoding the NR1A, NR2A, NR2B, NR2C and NR2D rat NMDA receptor subtypes were provided by Dr. P. H. Seeburg (see, Moriyoshi et al., Nature (Lond.) 354:31-37 (1991); Kutsuwada et al., Nature (Lond.) 358:36-41 (1992) Monyer et al., Science (Washington, D.C.) 256:1217-1221 (1992); Ikeda et al., FEBS Lett. 313:34-38 (1992); Ishii et al., J. Biol. Chem. 268:2836-2843 (1993) for details of these clones or their mouse homologs). The clones were transformed into appropriate host bacteria and plasmid preparations were made with conventional DNA purification techniques. A sample of each clone was linearized by restriction enzyme digestion and cRNA was synthesized with T3 RNA polymerase. The cRNA was diluted to 400 ng/μl and stored in 1 μl aliquots at -80° C. until injection.
(§4) The Xenopus oocyte expression system. Mature female Xenopus laevis were anaesthetized (20-40 min) using 0.15% 3-aminobenzoic acid ethyl ester (MS-222) and 2-4 ovarian lobes were surgically removed. Oocytes at developmental stages IV-VI (Dumont, J. N., J. Morphol. 136:153-180 (1972)), were dissected from the ovary still surrounded by enveloping ovarian tissues. Follicle-enclosed oocytes were micro-injected with 1:1 mixtures of cRNA:NR1A+NR2A, 2B, 2C or 2D; injecting ~2,5, or 20 ng of RNA encoding each receptor subunit. NR1A encoding cRNA was injected alone at ~20 ng. Oocytes were stored in Barth's medium containing (in mM):NaCl, 88; KCl, 1; CaCl2, 0.41; Ca(NO3)2, 0.33; MgSO4, 0.82 NaHCO3, 2.4; HEPES 5, pH 7.4, with 0.1 mg/ml gentamicin sulphate. While oocytes were still surrounded by enveloping ovarian tissues the Barth's medium was supplemented with 0.1% bovine serum. Oocytes were defolliculated 1-2 days following injections by treatment with collagenase (0.5 mg/ml Sigma Type I for 0.5-1 hr) (Miledi and Woodward, J. Physiol. (Lond.) 416:601-621 (1989)) and subsequently stored in serum-free medium.
(§5) Electrical recordings were made using a conventional two-electrode voltage clamp (Dagan TEV-200) over periods ranging between 3-21 days following injection. (Woodward et al., Mol. Pharmacol. 41: 89-103 (1992)). Oocytes were placed in a 0.1 ml recording chamber continuously perfused (5-15 ml min^-1 ) with frog Ringer's solution containing (in mM):NaCl, 115; KCl, 2; CaCl2, 1.8; HEPES, 5; pH 7.4. Drugs were applied by bath perfusion. Using oocytes expressing different subunit combinations of NMDA receptor, NMDA currents were activated by co-application of glutamate (100 μm) and glycine (1-100 μm). Inhibitory potency of the novel antagonists was assessed on responses elicited by fixed concentrations of glutamate and glycine, by measuring reductions in current induced by progressively increasing concentrations of antagonist. Concentration-inhibition curves were fit with equation 1.
(§6) I/Icontrol =1/(1+([antagonist]/10^-pIC50)^n) Eq. 1
(§7) in which Icontrol is the current evoked by agonists alone, pIC50 =-log IC50, IC50 is the concentration of antagonist that produces half maximal inhibition, and n is the slope factor. (De Lean et al., Am. J. Physiol. 235:E97-102 (1978)). […]

[2] = molecular target: T2, NMDA receptor subunits 1A/2C (Rattus norvegicus, UniProt P35439+Q00961); assay: Electrophysiological assay at NMDA receptor subunits expressed in Xenopus oocytes, 1A/2C; assay type: cell-based
T2 construct: expressed in transfected cells; host or cells: Xenopus laevis oocytes (cRNA injection; clones from Dr. P. H. Seeburg)
Experimental: as §1, §2, §3, §4, §5, §6, §7

[3] = Xenopus oocytes, glutamate 100 μm and glycine 1-100 μm, read-out: Subunits IC50, 1A/2B
[4] = Xenopus oocytes, glutamate 100 μm and glycine 1-100 μm, read-out: Subunits IC50, 1A/2C

T1 sequence (Q00960 27-1482, other chains not shown): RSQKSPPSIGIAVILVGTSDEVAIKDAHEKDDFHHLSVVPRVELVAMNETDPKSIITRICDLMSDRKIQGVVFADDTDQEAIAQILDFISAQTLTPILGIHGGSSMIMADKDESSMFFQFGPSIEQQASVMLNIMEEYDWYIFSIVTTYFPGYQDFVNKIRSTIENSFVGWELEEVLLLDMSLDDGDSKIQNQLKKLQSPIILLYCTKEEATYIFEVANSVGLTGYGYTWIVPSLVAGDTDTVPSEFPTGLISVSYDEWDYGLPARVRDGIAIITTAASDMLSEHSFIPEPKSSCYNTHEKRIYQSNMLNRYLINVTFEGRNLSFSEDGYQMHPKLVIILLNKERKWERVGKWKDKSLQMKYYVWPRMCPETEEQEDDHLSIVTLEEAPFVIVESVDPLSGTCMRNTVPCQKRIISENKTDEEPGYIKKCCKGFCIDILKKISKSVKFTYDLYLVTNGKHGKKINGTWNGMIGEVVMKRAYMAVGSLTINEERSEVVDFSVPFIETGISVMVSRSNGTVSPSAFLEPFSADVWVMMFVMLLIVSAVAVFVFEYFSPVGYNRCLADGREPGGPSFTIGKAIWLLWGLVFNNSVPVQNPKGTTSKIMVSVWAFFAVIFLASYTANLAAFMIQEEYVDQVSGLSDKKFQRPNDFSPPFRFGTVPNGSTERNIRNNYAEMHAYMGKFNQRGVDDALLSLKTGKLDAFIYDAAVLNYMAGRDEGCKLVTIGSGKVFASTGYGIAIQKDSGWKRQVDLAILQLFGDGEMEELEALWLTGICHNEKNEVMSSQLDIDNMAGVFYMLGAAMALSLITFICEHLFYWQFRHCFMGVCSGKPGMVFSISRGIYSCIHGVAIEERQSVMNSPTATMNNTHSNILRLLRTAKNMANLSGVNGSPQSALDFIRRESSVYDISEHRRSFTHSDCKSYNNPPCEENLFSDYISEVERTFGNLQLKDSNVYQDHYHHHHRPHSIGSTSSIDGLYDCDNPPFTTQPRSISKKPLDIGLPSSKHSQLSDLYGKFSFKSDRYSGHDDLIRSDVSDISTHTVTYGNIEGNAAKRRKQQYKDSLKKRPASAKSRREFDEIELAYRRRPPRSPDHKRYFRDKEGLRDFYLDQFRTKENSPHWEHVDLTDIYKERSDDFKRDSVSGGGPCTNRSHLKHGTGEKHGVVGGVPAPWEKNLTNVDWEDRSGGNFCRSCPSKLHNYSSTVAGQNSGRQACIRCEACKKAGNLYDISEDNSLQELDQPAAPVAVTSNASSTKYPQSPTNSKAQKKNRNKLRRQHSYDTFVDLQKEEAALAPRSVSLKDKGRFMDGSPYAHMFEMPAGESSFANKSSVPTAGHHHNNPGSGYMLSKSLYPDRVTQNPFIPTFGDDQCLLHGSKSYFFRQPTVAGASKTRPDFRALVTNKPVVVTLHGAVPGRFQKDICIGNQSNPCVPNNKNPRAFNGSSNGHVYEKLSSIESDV
T2 sequence (Q00961 20-1237, other chains not shown): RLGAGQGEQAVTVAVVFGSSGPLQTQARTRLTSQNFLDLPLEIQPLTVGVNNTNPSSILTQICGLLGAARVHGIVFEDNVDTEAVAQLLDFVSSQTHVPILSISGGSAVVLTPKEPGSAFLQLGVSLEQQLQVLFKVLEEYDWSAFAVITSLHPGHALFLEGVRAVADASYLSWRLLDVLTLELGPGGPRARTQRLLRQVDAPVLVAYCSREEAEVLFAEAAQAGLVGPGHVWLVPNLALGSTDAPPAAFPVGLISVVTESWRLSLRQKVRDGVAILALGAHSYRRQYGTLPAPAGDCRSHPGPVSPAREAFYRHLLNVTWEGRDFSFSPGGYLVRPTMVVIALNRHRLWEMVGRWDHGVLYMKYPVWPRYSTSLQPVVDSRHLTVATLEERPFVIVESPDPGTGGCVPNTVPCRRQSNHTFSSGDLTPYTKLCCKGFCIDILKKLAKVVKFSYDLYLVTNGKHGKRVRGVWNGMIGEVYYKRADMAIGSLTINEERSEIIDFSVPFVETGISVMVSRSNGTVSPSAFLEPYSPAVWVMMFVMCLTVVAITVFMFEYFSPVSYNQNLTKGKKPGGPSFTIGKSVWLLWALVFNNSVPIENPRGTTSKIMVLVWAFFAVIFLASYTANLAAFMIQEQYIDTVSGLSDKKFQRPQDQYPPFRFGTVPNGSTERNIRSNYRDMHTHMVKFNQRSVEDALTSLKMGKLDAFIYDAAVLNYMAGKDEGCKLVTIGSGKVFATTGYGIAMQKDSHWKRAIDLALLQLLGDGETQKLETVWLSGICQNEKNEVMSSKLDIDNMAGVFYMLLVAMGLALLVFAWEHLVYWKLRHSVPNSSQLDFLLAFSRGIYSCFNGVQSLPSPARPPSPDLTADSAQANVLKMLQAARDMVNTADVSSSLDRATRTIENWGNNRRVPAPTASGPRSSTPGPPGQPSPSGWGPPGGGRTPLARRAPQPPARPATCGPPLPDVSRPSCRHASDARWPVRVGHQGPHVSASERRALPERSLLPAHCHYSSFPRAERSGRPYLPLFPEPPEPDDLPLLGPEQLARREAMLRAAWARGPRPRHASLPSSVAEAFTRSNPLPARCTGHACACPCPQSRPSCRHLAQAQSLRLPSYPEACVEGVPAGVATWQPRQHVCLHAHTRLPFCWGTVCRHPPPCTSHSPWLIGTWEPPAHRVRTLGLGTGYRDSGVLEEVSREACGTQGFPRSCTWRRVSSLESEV

Structure (SMILES) | IC50 [1, 3] [µM] | IC50 [2, 4] [µM] | IC50 [1] [µM] | IC50 [2] [µM]
Clc1ccc(OCCN2CCC(Cc3ccccc3)CC2)cc1 [Ex. 11, 4-Benzyl-1-(2-(4-chlorophenoxy)ethyl)piperidine hydrochloride] | 10 | > 100 |  | 
O=[N+]([O-])c1ccc(OCCN2CCC(Cc3ccccc3)CC2)cc1 [Ex. 12, 4-Benzyl-1-(2-(4-nitrophenoxy)ethyl)piperidine hydrobromide] | 6 | > 100 |  | 
N#Cc1ccc(OCCN2CCC(Cc3ccccc3)CC2)cc1 [Ex. 14, 4-Benzyl-1-(2-(4-cyanophenoxy)ethyl)piperidine] | 3 | > 100 |  | 
CCOC(=O)Cc1cccc(OCCN2CCC(Cc3ccccc3)CC2)c1 [Ex. 17, 4-Benzyl-1-(2-(3-(ethoxycarbonylmethyl)phenoxy)ethyl)piperidine] | 3 | > 100 |  | 
Clc1ccc(CC2CCN(CCOc3ccc(Cl)cc3)CC2)cc1 [Ex. 26, 4-(4-Chlorobenzyl)-1-(2-(4-chlorophenoxyethyl)piperidine hydrochloride] | 12 | > 100 |  | 
OCCc1cccc(OCCN2CCC(Cc3ccc(Cl)cc3)CC2)c1 [Ex. 29, 4-(4-Chlorobenzyl)-1-(2-(3-(2-hydroxyethyl)phenoxy)ethyl)piperidine] | 0.5 | > 100 |  | 
Fc1ccc(CC2CCN(CCOc3ccc(Cl)cc3)CC2)cc1 [Ex. 34, 4-(4-Fluorobenzyl)-1-(2-(4-chlorophenoxy)ethyl)piperidine hydrochloride] | 15 | > 100 |  | 
COc1ccc(CC2CCN(CCOc3ccc(F)cc3)CC2)cc1 [Ex. 35, 1-(2-(4-Fluorophenoxy)ethyl)-4-(4-methoxybenzyl)piperidine hydrochloride] | 4 | > 100 |  | 
Fc1ccc(NC2CCN(CCOc3ccc(F)cc3)CC2)cc1 [Ex. 39, 1-(2-(4-Fluorophenoxy)ethyl)-4-(N-(4-fluoroanilino)piperidine hydrochloride] | 60 | > 100 |  | 
OC1CN(CCCOc2ccccc2)CCC1c1cccc(C(F)(F)F)c1 (centres unmarked) [Ex. 46, 3-Hydroxy-1-(3-phenoxypropyl)-4-(3-trifluoromethylphenyl)piperidine hydrochloride] | 1.5 | > 100 |  | 
OC1(Cc2ccccc2)CCN(CCCOc2ccccc2)CC1 [Ex. 48, 4-Benzyl-4-hydroxy-1-(3-phenoxypropyl)piperidine] | 22 | > 100 |  | 
ClCCN1CCC(Cc2ccccc2)CC1 [Ex. 49, 4-Benzyl-1-(2-chloroethyl)piperidine] |  |  | 5 | > 100
O=[N+]([O-])c1ccccc1OCCN1CCC(Cc2ccccc2)CC1 [Ex. 60, 4-Benzyl-1-[2-(2-nitrophenoxy)ethyl]piperidine] | 6 | > 100 |  | 
c1ccc(CC2CCN(CCOc3ncnc4ccccc34)CC2)cc1 [Ex. 66] | 10 | > 100 |  | 
COc1ccccc1OCCN1CCC(Cc2ccccc2)CC1 [Ex. 68, 4-Benzyl-1-[2-(2-methoxyphenoxy)ethyl]piperidine] | 5 | > 100 |  | 
CC(=O)Nc1ccc(OCCN2CCC(Cc3ccccc3)CC2)cc1NC(C)=O [Ex. 71A, 4-Benzyl-1-[2-(3,4-bisacetamidophenoxy)ethyl]piperidine] | 20 | > 100 |  | 
Cc1nc2cc(OCCN3CCC(Cc4ccccc4)CC3)ccc2[nH]1 [Ex. 71C, 4-Benzyl-1-[2-(2-methylbenzimidazol-5-oxy)ethyl]piperidine] | 8 | > 100 |  | 
c1ccc(CCCN2CCC(Cc3ccccc3)CC2)cc1 [Ex. 84, 4-Benzyl-1-(3-phenylpropyl)piperidine hydrochloride] | 2.2 | > 100 |  | 
OC1(Cc2ccccc2)CCN(CCCc2ccccc2)CC1 [Ex. 91, 4-Benzyl-4-hydroxy-1-(3-phenylpropyl)piperidine hydrochloride] | 22 | > 100 |  | 
